Tests used:
neuroblastoma cell lines = test: CellTiterGlo viability, panel of neuroblastoma cell lines; assay type: cell-based; settings: all neuroblastoma cell lines tested; single agent
Description: (§1) In addition, all media contained penicillin (100 IU/ml), streptomycin (100 μg/ml) and L-glutamine (2 mM). Cell lines were cultured at 37° C. in a humidified atmosphere containing 5% CO2 and expanded in T-150 flasks. In all cases cells were thawed from frozen stocks, expanded through ≥1 passage using appropriate dilutions, counted and assessed for viability using a CASY cell counter prior to plating 150 ul/well at the densities indicated in Table 6 into 96-well plates. All cell lines were determined to be free of mycoplasma contamination in-house.
Stock solutions of compounds were prepared at a concentration of 5 mM in DMSO and stored at −20° C. […] Effects of the compounds on cell viability were assessed after 2 or 3 days of incubation (as indicated in Table 6) at 37° C./5% CO2 by quantification of cellular ATP levels using CellTiterGlo at 150 μL reagent/well. […] Luminescence was quantified on a multipurpose platereader. Single agent IC50s were calculated using standard four-parametric curve fitting. […]
Identical experiments were performed to assess potential synergistic interactions between compound combinations. Synergy Score were assessed using the Excess Inhibition 2D matrix according to the Loewe additivity model (Lehar et al, Nat Biotechnol. 2009 July; 27(7): 659-666). […]

[1] = test system: Karpas 422 human B-cell non-Hodgkin's lymphoma xenografts; test: Lymphoma Karpas422 xenograft model in rats; assay type: in vivo; settings: day 34; p<0.05; Compound 3 20 mg/kg iv QW; Compound 1 150 mg/kg po QW
Description: Karpas 422 human B-cell non-Hodgkin's lymphoma (NHL) cell line was established from the pleural effusion of a patient with chemotherapy-resistant NHL. The cells were obtained from the DSMZ cell bank and cultured in RPMI-1640 medium (BioConcept Ltd. Amimed,) supplemented with 10% FCS (BioConcept Ltd. Amimed), 2 mM L-glutamine (BioConcept Ltd. Amimed), 1 mM sodium pyruvate (BioConcept Ltd. Amimed) and 10 mM HEPES (Gibco) at 37° C. in an atmosphere of 5% CO2 in air. Cells were maintained between 0.5 and 1.5×10^6 cells/mL. […]
Tumour growth was monitored regularly post cell inoculation and animals were randomised into treatment groups (n=5) when tumour volume reached appropriate volume. During the treatment period tumour volume was measured about twice a week using calipers. Tumour size, in mm^3, was calculated from: (L×W2×π/6). […]
Tumour data were analyzed statistically using GraphPad Prism 7.00 (GraphPad Software). If the variances in the data were normally distributed, the data were analyzed using one-way ANOVA with post hoc Dunnett's test for comparison of treatment versus control group. […]
As a measure of efficacy the % T/C value is calculated at the end of the experiment according to: […]
Tumour regression was calculated according to: […]

[2] = test system: Acute Myeloid Leukemia (AML) cell lines; test: CellTiterGlo viability, panel of AML cell lines; assay type: cell-based; settings: all 5 AML cell lines of combination (c); single agent; read-out: IC50s
Description: In addition, all media contained penicillin (100 IU/ml), streptomycin (100 μg/ml) and L-glutamine (2 mM).
as §1, with “Cell” for “In addition, all media contained penicillin (100 IU/ml), streptomycin (100 μg/ml) and L-glutamine (2 mM). Cell”, “Table 1” for “Table 6”
Stock solutions of compounds were prepared at a concentration of 5 mM in DMSO and stored at −20° C.
In order to analyse the activity of the compounds as single agents, cells were seeded and treated with nine 2-fold serial dilutions of each compound dispensed individually directly into the cell assay plates. Effects of the compounds on cell viability were assessed after 3 days of incubation at 37° C./5% CO2 by quantification of cellular ATP levels using CellTiterGlo at 75 μL reagent/well. All the experiments were performed in triplicates. Luminescence was quantified on a multipurpose plate reader. Single agent IC50s were calculated using standard four-parametric curve fitting. […]
In order to analyse the activity of the compounds in combination, cells were seeded and treated with seven or eight 3.16-fold serial dilutions of each compound dispensed, either individually or in all possible permutations in a checkerboard fashion, directly into the cell assay plates as indicated in FIG. 9. Effects of the single agents as well as their checkerboard combinations on cell viability were assessed after 3 days of incubation at 37° C./5% CO2 by quantification of cellular ATP levels using CellTiterGlo at 75 μL reagent/well. […] Luminescence was quantified on a multipurpose plate reader.
Potential synergistic interactions between compound combinations were assessed using the Excess Inhibition 2D matrix according to the Loewe additivity model and are reported as Synergy Score (Lehar et al, Nat Biotechnol. 2009 July; 27(7): 659-666). […]

Cl.O=C(c1cc(-c2cc3c(cc2C(=O)N2Cc4ccccc4C[C@H]2CN2CCOCC2)OCO3)n2c1CCCC2)N(c1ccccc1)c1ccc(O)cc1 [Compound 1, HCl, N-(4-hydroxyphenyl)-3-{6-[((3S)-3-(4-morpholinylmethyl)-3,4-dihydro-2(1H)-isoquinolinyl)carbonyl]-1,3-benzodioxol-5-yl}-N-phenyl-5,6,7,8-tetrahydro-1-indolizine carboxamide hydrochloride]
IC50 (neuroblastoma cell lines): > 1000 nM

COc1ccccc1-c1nccc(COc2ccccc2C[C@@H](Oc2ncnc3sc(-c4ccc(F)cc4)c(-c4ccc(OCCN5CCN(C)CC5)c(Cl)c4C)c23)C(=O)O)n1 [Compound 3, (2R)-2-{[(5Sa)-5-{3-chloro-2-methyl-4-[2-(4-methylpiperazin-1-yl)ethoxy]phenyl}-6-(4-fluorophenyl)thieno[2,3-d]pyrimidin-4-yl]oxy}-3-(2-{[2-(2-methoxyphenyl)pyrimidin-4-yl]methoxy}phenyl)propanoic acid]
tumour response versus vehicle group [1]: significantly different from the vehicle group | IC50 [2]: < 200 nM
